Test results reported in US11691962B2 (eXIthera Pharmaceuticals, Inc., priority 2018, dated 2023).

Biological target: Factor XIa (Homo sapiens (Human), UniProt P03951)
Experiment: Factor XIa enzyme inhibition assay (dose response, fluorogenic AMC substrate)
Format: biochemical
Conditions: read-out: hFXIa IC50
Experimental: • Assay buffer: 20 mM Hepes, pH 7.4; 150 mM NaCl; 0.02% Tween 20 • Compounds: 10 mM stocks in DMSO • Substrate: 20 mM Glp-Pro-Arg-AMC, 25 mg/2.3 mL H2O (store at +4° C.) [Factor XIa, thrombin, and trypsin] • 20 mM Pro-Phe-Arg-AMC (Bachem I-1295), 25 mg/2.2 mL H2O • or Boc-Leu-Gly-Arg-AMC (Bachem I-1105), 25 mg/2.07 mL H2O • (store at +4° C.) [Factor Xa] • Enzyme: Factor XIa; 0.25 μM in 50% glycerol (20 μg/mL) • Trypsin; 0.2 μM in 50% glycerol (4.8 μg/mL) • Thrombin; 0.2 μM in 50% glycerol (7.34 μg/mL) • Factor Xa; 0.2 μM in 50% glycerol (9.2 μg/mL) • These stocks are aliquoted (˜100 μL/aliquot) and stored at −20° C. Methods: • 1. Dilute the substrate to 100 μM in assay buffer (30 μL/6 mL). The enzyme is diluted to 0.5 nM just prior to use (12 μL/6 mL for Factor XIa; 15 μL/6 mL for all of the rest.) • 2. Pipette 50 μL of substrate into each well of the 96 well (12×8) microtiter plate. (Column 1 is used as the 100% activity control and receives no compound, and Column 12 is the blank and receives no enzyme.) Add an additional 46 μL to column 2. • 3. Pipette 4 μL of each compound into the appropriate well in column 2 of the plate (unknowns assayed in triplicate, standard assayed in duplicate). The final compound concentration will be […] of the stock. • 4. Serially two-fold dilute the compound by mixing the sample in column 2, removing 50 μL to the next well (column 3), mix and remove to column 4, etc. until column 11. After mixing column 11, remove 50 μL and discard. • 5. Pipette 50 μL of buffer into column 12. Initiate the reaction by adding 50 μL of enzyme solution to each well of columns 1-11 as rapidly as possible. • 6. Read the plate in a spectrophotometer (SpectraMax) at 30° C., wherein each well is measured every 60 s for 30 min. For Factor Xa assays, each well is measured every 1 min for a total of 60 min. • 7. For Factor XIa assays, the compounds are assayed, in duplicate, at 3 different starting concentrations, 20, 2, and 0.2 μM; 1:10, 1:100, and 1:1000 dilution of 10 mM stock or at 2, 0.2, and 0.02 μM; 1:100, 1:1000, and 1:10,000 dilution of 10 mM stock. Data for each concentration are combined for graphing and data fitting. • 8. Data can be used both for estimation of IC50 and for estimation of Kon.
Potential inhibitors of Factor XIa were evaluated using the following assay.
PyroGlu-Pro-Arg-7-methylaminocourin (AMC), available from CPC Scientific, Inc., is based on the substrate pyro-Glu-Pro-Arg-pNA (S-2366), available from Diapharma Group, Inc. (Columbus, Ohio), wherein the p-nitroanaline group is replaced with 7-methylaminocoumarin (AMC).
The final concentration of the substrate in the assay was 50 μM, and the final concentration of the enzyme was 0.25 nM. Inhibitors were tested by serial dilution over an appropriate range to yield a dose response curve for determination of the inhibitors' IC50 value. The assay mixture was read every minute for 30 minutes in order to generate progress curves. The plates were read in a Spectramax m5 Multimode Plate Reader (Molecular Devices LLC, Sunnyvale, Calif.). Dose response curves were fit to Equation 1 below in which A is the maximum inhibition, B is the minimum inhibition, C is the IC50, and D is the Hill coefficient. Y=[(A−B)/(1+(X/C)^D)]+B (Equation 1)

Chain of Factor XIa (P03951 388-625): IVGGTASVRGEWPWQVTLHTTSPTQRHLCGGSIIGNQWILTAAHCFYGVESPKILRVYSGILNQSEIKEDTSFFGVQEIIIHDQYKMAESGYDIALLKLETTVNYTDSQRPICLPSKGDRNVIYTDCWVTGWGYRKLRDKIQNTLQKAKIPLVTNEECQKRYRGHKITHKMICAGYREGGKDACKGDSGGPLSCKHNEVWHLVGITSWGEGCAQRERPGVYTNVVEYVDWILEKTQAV
Chain of Factor XIa (P03951 19-387 partner): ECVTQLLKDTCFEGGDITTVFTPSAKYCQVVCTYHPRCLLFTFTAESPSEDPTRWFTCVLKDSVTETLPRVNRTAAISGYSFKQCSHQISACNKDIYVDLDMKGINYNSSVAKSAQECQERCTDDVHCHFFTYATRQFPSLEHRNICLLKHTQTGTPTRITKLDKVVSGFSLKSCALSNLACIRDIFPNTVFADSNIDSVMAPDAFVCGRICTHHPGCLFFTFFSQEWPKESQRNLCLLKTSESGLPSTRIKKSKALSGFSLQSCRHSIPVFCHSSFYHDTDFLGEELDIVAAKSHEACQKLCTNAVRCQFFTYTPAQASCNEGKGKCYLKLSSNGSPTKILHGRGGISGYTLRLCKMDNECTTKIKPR

`CC[C@@H](NC(=O)N1C(=O)[C@H](Cc2ccnc(N)c2)[C@H]1C(=O)N(C)c1ccnn1C)c1ccc(F)c(F)c1` [Compound 1-215, (2S,3R)-3-((2-aminopyridin-4-yl)methyl)-N2-(1-methyl-1H-pyrazol-5-yl)-N1-((R)-1-(3,4-difluorophenyl)propyl)-N2-methyl-4-oxoazetidine-1,2-dicarboxamide] and `CC[C@@H](NC(=O)N1C(=O)[C@H](Cc2ccnc(N)c2)[C@H]1C(=O)N(C)c1ccnn1C)c1cc(F)c(F)c(F)c1` [Compound 1-204, (2S,3R)-3-((2-aminopyridin-4-yl)methyl)-N2-(1-methyl-1H-pyrazol-5-yl)-N1-((R)-1-(3,4,5-trifluorophenyl)propyl)-N2-methyl-4-oxoazetidine-1,2-dicarboxamide] cannot be ordered by IC50: under 10 nM for the first, under 10 nM for the second.

Compared with `CC[C@@H](NC(=O)N1C(=O)[C@H](Cc2ccnc(N)c2)[C@H]1C(=O)N(C)c1ccn(C)n1)c1ccsc1` [Compound 1-54, (2S,3R)-3-((2-aminopyridin-4-yl)methyl)-N2-(1-methyl-1H-pyrazol-3-yl)-N1-((R)-1-(thiophen-3-yl)propyl)-N2-methyl-4-oxoazetidine-1,2-dicarboxamide], `CC[C@@H](NC(=O)N1C(=O)[C@H](Cc2ccnc(N)c2)[C@H]1C(=O)N(C)c1ccn(C)n1)c1cc(C)ccc1C` [Compound 1-132, (2S,3R)-3-((2-aminopyridin-4-yl)methyl)-N2-(1-methyl-1H-pyrazol-3-yl)-N1-((R)-1-(2,5-dimethylphenyl)propyl)-N2-methyl-4-oxoazetidine-1,2-dicarboxamide] is lower in IC50: 10 to 100 nM for the first, under 10 nM for the second. The second is the more potent here.

First: CC[C@H](NC(=O)N1C(=O)[C@H](Cc2ccnc(N)c2)[C@H]1C(=O)N(C)c1nccn1C)c1ccc(C)nc1C [Compound 1-96, (2S,3R)-3-((2-aminopyridin-4-yl)methyl)-N2-(1-methyl-1H-imidazol-2-yl)-N1-((S)-1-(2,6-dimethylpyridin-3-yl)propyl)-N2-methyl-4-oxoazetidine-1,2-dicarboxamide]
Second: CC[C@@H](NC(=O)N1C(=O)[C@H](Cc2ccnc(N)c2)[C@H]1C(=O)N(C)c1nccn1C)c1ccc(C)nc1C [Compound 1-95, (2S,3R)-3-((2-aminopyridin-4-yl)methyl)-N2-(1-methyl-1H-imidazol-2-yl)-N1-((R)-1-(2,6-dimethylpyridin-3-yl)propyl)-N2-methyl-4-oxoazetidine-1,2-dicarboxamide]
The IC50 of the first is higher: 100 to 1000 nM for the first, 10 to 100 nM for the second.

First: CC[C@@H](NC(=O)N1C(=O)[C@H](Cc2ccnc(N)c2)[C@H]1C(=O)N(C)c1nccn1C)c1cccc(F)c1C [Compound 1-86, (2S,3R)-3-((2-aminopyridin-4-yl)methyl)-N2-(1-methyl-1H-imidazol-2-yl)-N1-((R)-1-(3-fluoro-2-methylphenyl)propyl)-N2-methyl-4-oxoazetidine-1,2-dicarboxamide]
Second: CC[C@@H](NC(=O)N1C(=O)[C@H](Cc2ccnc(N)c2)[C@H]1C(=O)N(C)c1ccn(C)n1)c1cc(Cl)ccc1C [Compound 1-141, (2S,3R)-3-((2-aminopyridin-4-yl)methyl)-N2-(1-methyl-1H-pyrazol-3-yl)-N1-((R)-1-(5-chloro-2-methylphenyl)propyl)-N2-methyl-4-oxoazetidine-1,2-dicarboxamide]
The IC50 of the first is higher: 100 to 1000 nM for the first, under 10 nM for the second.

`CC[C@@H](NC(=O)N1C(=O)[C@H](Cc2cc(C)nc(N)c2)[C@H]1C(=O)N(C)c1ccn(C)n1)c1ccc(C)c(Cl)c1` [Compound 1-147, (2S,3R)-3-((2-amino-6-methylpyridin-4-yl)methyl)-N2-(1-methyl-1H-pyrazol-3-yl)-N1-((R)-1-(3-chloro-4-methylphenyl)propyl)-N2-methyl-4-oxoazetidine-1,2-dicarboxamide] and `CC[C@@H](NC(=O)N1C(=O)[C@H](Cc2cc(C)nc(N)c2)[C@H]1C(=O)N(C)c1ccn(C)n1)c1ccc(C)cc1` [Compound 1-142, (2S,3R)-3-((2-amino-6-methylpyridin-4-yl)methyl)-N2-(1-methyl-1H-pyrazol-3-yl)-N1-((R)-1-(4-methylphenyl)propyl)-N2-methyl-4-oxoazetidine-1,2-dicarboxamide] cannot be ordered by IC50: under 10 nM for the first, under 10 nM for the second.

`CC[C@@H](NC(=O)N1C(=O)[C@H](Cc2cc(C)nc(N)c2)[C@H]1C(=O)N(C)c1cnn(C)c1)c1cc(F)ccc1C` [Compound 1-178, (2S,3R)-3-((2-amino-6-methylpyridin-4-yl)methyl)-N2-(1-methyl-1H-pyrazol-4-yl)-N1-((R)-1-(5-fluoro-2-methylphenyl)propyl)-N2-methyl-4-oxoazetidine-1,2-dicarboxamide] and `CC[C@@H](NC(=O)N1C(=O)[C@H](Cc2cc(C)nc(N)c2)[C@H]1C(=O)N(C)c1cnn(C)c1)c1ccc(C)c(F)c1` [Compound 1-172, (2S,3R)-3-((2-amino-6-methylpyridin-4-yl)methyl)-N2-(1-methyl-1H-pyrazol-4-yl)-N1-((R)-1-(3-fluoro-4-methylphenyl)propyl)-N2-methyl-4-oxoazetidine-1,2-dicarboxamide] cannot be ordered by IC50: under 10 nM for the first, under 10 nM for the second.

Compared with `CC[C@@H](NC(=O)N1C(=O)[C@H](Cc2cc(C)nc(N)c2)[C@H]1C(=O)N(C)c1cnn(C)c1)c1cccc(F)c1C` [Compound 1-191, (2S,3R)-3-((2-amino-6-methylpyridin-4-yl)methyl)-N2-(1-methyl-1H-pyrazol-4-yl)-N1-((R)-1-(3-fluoro-2-methylphenyl)propyl)-N2-methyl-4-oxoazetidine-1,2-dicarboxamide], `CC[C@@H](NC(=O)N1C(=O)[C@H](Cc2cc(C)nc(N)c2)[C@H]1C(=O)N(C)c1nnco1)c1ccccc1` [Compound 1-187, (2S,3R)-3-((2-amino-6-methylpyridin-4-yl)methyl)-N2-(1,3,4-oxadiazol-2-yl)-N1-((R)-1-phenylpropyl)-N2-methyl-4-oxoazetidine-1,2-dicarboxamide] is lower in IC50: 10 to 100 nM for the first, under 10 nM for the second. The second is the more potent here.

First: CC[C@@H](NC(=O)N1C(=O)[C@H](Cc2ccnc(N)c2)[C@H]1C(=O)N(C)c1nncn1C)c1ccccc1 [Compound 1-165, (2S,3R)-3-((2-aminopyridin-4-yl)methyl)-N2-(4-methyl-4H-1,2,4-triazol-3-yl)-N1-((R)-1-phenylpropyl)-N2-methyl-4-oxoazetidine-1,2-dicarboxamide]
Second: CC[C@@H](NC(=O)N1C(=O)[C@H](Cc2ccnc(N)c2)[C@H]1C(=O)N(C)c1nncs1)c1ccccc1 [Compound 1-168, (2S,3R)-3-((2-aminopyridin-4-yl)methyl)-N2-(1,3,4-thiadiazol-2-yl)-N1-((R)-1-phenylpropyl)-N2-methyl-4-oxoazetidine-1,2-dicarboxamide]
The IC50 of the first is higher: 10 to 100 nM for the first, under 10 nM for the second. The second is the more potent here.

First: CC[C@@H](NC(=O)N1C(=O)[C@H](Cc2ccnc(NC)c2)[C@H]1C(=O)N(C)c1ccnn1C)c1cccc(Cl)c1 [Compound 1-36, (2S,3R)-3-((2-methylaminopyridin-4-yl)methyl)-N2-(1-methyl-1H-pyrazol-5-yl)-N1-((R)-1-(3-chlorophenyl)propyl)-N2-methyl-4-oxoazetidine-1,2-dicarboxamide]
Second: CC[C@@H](NC(=O)N1C(=O)[C@H](Cc2ccnc(NC(=O)OC(C)(C)C)c2)[C@H]1C(=O)N(C)c1cnn(C)c1)c1cccc(Cl)c1 [Compound 1-23, (2S,3R)-3-((2-(((tert-butoxy)carbonyl)amino)pyridin-4-yl)methyl)-N2-(1-methyl-1H-pyrazol-4-yl)-N1-((R)-1-(3-chlorophenyl)propyl)-N2-methyl-4-oxoazetidine-1,2-dicarboxamide]
The IC50 of the first is lower: 10 to 100 nM for the first, over 1000 nM for the second.

Compound `CN(C(=O)[C@@H]1[C@@H](Cc2ccnc(N)c2)C(=O)N1C(=O)NCc1cccc(Cl)c1)c1cccs1` [Compound 1-29, (2S,3R)-3-((2-aminopyridin-4-yl)methyl)-N2-(thiophen-2-yl)-N1-((3-chlorophenyl)methyl)-N2-methyl-4-oxoazetidine-1,2-dicarboxamide] has an IC50 of 10 to 100 nM.
